Reference: patent US9873918B2, “Treatment of acute myeloid leukemia and myelodysplastic syndromes” (Albert Einstein College of Medicine, Inc., priority 2011, dated 2018)

Legend:
Assay in all cases: Colony formation (clonogenic) assay in methylcellulose after lentiviral IL1RAP shRNA knockdown
Format in all cases: cell-based, human
Settings in all cases: p<0.05
[1] = tested on: HEL cells
Source text: (§1) FIG. 18A-18B. IL1RAP knockdown decreases clonogenic potential and leads to increased cell death of AML cells. A) Colony formation assay in semisolid methylcellulose media of AML cells (THP-1, OCI-AML3, HEL, HL-60) infected with control and two IL1RAP-directed shRNAs. Mean and standard deviations are shown. Asterisks indicate statistical significance (p<0.05). B) Analysis of apoptosis/necrosis with Annexin V/DAPI in THP-1 cells infected with control and IL1RAP shRNAs. […] Statistical significance is indicated (* indicate p<0.05).
(§2) For knockdown studies, shRNA template oligonucleotides (Luciferase Control shRNA: 5′-[…]-3′ (SEQ ID NO:3); IL-1RAP shRNA 1: 5′-[…]-3′ (SEQ ID NO:4); IL-1RAP shRNA 2: 5′-[…]-3′) (SEQ ID NO:5) were cloned into the pSIH1-H1-copGFP shRNA vector system (System Biosciences, Mountain View, Calif.). For production of lentiviral particles, lentiviral constructs with packaging vectors were transfected into 293T producer cells using Fugene HD transfection reagent (Roche). Supernatant was harvested after 48 and 72 hours, and concentrated by ultracentrifugation. For knockdown studies, HL60, HEL, OCI-AML3, MOLM-13, THP1 and UT-7 cell lines were transfected with the short-hairpin-containing lentivirus (MOI=10), incubated for 48 or 72 hours. After culture with fresh medium, GFP-positive cells were sorted using a FACS Aria II sorter (BD Biosciences) and used for experiments. Level of knockdown of Il-1RAP was determined by flow cytometry.
(§3) THP1 cells were transduced with these lentiviral shRNAs or with a non-silencing control, and subjected sorted GFP-positive, Annexin V-negative, DAPI-negative cells to clonogenic assays. Knockdown of IL1RAP led to a significant (p<0.05) 94% and 98% inhibition of leukemic colony formation of THP1 cells in comparison to the non-silencing control (FIG. 18A).

[2] = tested on: OCI-AML3 cells
Source text: as §1, §2, §3

[3] = tested on: HL-60 cells
Source text: as §1, §2, §3

shRNA#1: IL1RAP-directed lentiviral shRNA, template 5′-tggccttactctgatctggtattggacta-3′ (SEQ ID NO:4), in pSIH1-H1-copGFP vector (DNA TGGCCTTACTCTGATCTGGTATTGGACTA)
reduced clonogenicity [1]: 69%
reduced clonogenicity [2]: 51.5%
reduced clonogenicity [3]: 45%

shRNA#2: IL1RAP-directed lentiviral shRNA, template 5′-cgggcattaattgatttcctactatattc-3′ (SEQ ID NO:5), in pSIH1-H1-copGFP vector (DNA CGGGCATTAATTGATTTCCTACTATATTC)
reduced clonogenicity [1]: 81%
reduced clonogenicity [2]: 62%
reduced clonogenicity [3]: 38.5%
